Source: patent US7351724B2, “Oxadiazole ketone inhibitors of fatty acid amide hydrolase” (The Scripps Research Institute, priority 2004, dated 2008)
pIC50, pKi: −log10 of the molar value. Read-outs that look alike come from different tables or passages of the source.

Legend:
FAAH [1] = biological target: T1, FAAH (Rattus norvegicus, UniProt P97612); experiment: FAAH enzyme assay, hydrolysis of 14C-oleamide by solubilized liver plasma membrane extract; format: biochemical
T1 construct: using a solubilized liver plasma membrane extract containing FMH; from tissue; host or cells: liver plasma membrane (solubilized extract)
T1 sequence (P97612 1-579): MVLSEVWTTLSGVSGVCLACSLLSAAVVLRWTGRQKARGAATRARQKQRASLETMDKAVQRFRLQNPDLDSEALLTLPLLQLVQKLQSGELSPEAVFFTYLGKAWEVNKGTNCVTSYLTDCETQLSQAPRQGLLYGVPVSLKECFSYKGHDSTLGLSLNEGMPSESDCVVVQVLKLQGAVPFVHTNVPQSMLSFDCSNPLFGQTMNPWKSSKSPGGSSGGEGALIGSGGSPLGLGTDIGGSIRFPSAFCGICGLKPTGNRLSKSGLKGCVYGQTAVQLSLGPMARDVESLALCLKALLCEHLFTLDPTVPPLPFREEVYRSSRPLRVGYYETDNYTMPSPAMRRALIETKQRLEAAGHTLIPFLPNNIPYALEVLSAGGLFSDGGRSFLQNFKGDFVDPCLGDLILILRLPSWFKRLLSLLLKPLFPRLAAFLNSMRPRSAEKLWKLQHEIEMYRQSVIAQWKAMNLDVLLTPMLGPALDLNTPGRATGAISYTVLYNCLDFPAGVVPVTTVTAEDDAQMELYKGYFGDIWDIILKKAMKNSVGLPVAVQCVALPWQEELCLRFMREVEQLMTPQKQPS
Procedure: All enzyme assays were performed at 20-23° C. using a solubilized liver plasma membrane extract containing […] in a reaction buffer of 125 mM Tris, 1 mM EDTA, 0.2% glycerol, 0.02% Triton X-100, 0.4 mM HEPES, pH 9.0 buffer (Patricelli, M. P. et al. Bioorg. Med. Chem. Lett. 1998, 8, 613-618; Patterson, J. E., et al. J. Am Chem. Soc. 1996, 118, 5938-5945). The initial rates of hydrolysis were monitored by following the breakdown of ^14C-oleamide to oleic acid as described previously (Cravatt, B. F. et al. Science 1995, 268, 1506-1509; Patricelli, M. P. et al., 1998). The inhibition was reversible, non time-dependent. Linear least squares fits were used for all reaction progress curves and R^2 values were consistently >0.97. IC50 values were determined from the inhibition observed at 3-5 different test compound concentrations (from three or more trials at each concentration) using the formula IC50=[I]/[(K0/Ki)−1], where K0 is the control reaction rate without inhibitor and Ki is the rate with test compound at concentration [I] (Conde-Frieboes, K., et al. J. Am. Chem. Soc. 1996, 118, 5519-5525). Ki values were determined by the Dixon Method (x-intercepts of weighted linear fits of [I] versus 1/rate plots at constant substrate concentration, which were converted to Ki values using the formula Ki=−xint/[1+[S]/Km]).

[2] = biological target: T2, triacylglycerol hydrolase (TGH) (Mus musculus, UniProt Q8VCT4); experiment: Proteome-wide serine hydrolase selectivity screen, competition with RPFP active site labeling; format: binding; conditions: inhibition of RPFP labeling
T2 construct: from tissue
T2 sequence (Q8VCT4 19-565): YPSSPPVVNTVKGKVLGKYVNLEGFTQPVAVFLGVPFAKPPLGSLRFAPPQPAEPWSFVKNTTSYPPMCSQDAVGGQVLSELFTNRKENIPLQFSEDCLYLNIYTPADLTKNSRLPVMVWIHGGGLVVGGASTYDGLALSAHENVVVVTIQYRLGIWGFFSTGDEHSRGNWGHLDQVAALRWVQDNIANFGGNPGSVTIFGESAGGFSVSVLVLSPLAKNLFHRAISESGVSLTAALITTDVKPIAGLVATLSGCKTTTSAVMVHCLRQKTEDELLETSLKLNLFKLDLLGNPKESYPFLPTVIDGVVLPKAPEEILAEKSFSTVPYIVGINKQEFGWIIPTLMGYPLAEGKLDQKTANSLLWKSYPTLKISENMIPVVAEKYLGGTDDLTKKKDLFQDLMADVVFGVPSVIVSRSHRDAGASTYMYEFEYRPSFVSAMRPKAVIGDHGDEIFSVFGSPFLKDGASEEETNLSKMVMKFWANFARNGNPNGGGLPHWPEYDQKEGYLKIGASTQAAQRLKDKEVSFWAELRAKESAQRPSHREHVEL
Text: (§1) Serine hydrolases represent one of the largest classes of enzymes collectively comprising approximately 3% of the predicted Drosophila proteome. Subclasses include serine proteases, lipases, esterases, amidases, and transacetylases.
Biotinylated (B) or fluorescently-tagged (rhodamine, R) PEG-fluorophosphonate (BPFP or RPFP, respectively) have been used to isolate and identify (BPFP) or quantitate (RPFP) proteome serine hydrolases through selective, irreversible active site labeling (Kidd, D., et al., 2001; Liu, Y., et al., 1999). Extending this to the assessment of inhibitor selectivity required incubation of the proteome with RPFP in the presence of systematically varied concentrations of inhibitor followed by SDS-PAGE to detect serine hydrolases sensitive to the inhibitor (Leung, D., et al., 2003). A resulting inhibition of RPFP active site labeling correlated with inhibitor affinity for the target and permitted the simultaneous assessment of competitive enzymes.
Two enzymes emerged from the screen as competitive targets for the oxadiazole ketone compounds detailed herein: triacylglycerol hydrolase (TGH) and an uncharacterized membrane-bound hydrolase that lacks known substrates and function (KIAA1363) (Kidd, D., et al., 2001; Liu, Y., et al., 1999; Leung, D., et al., 2003).

FAAH [3] = biological target: T3, FAAH (Mus musculus, UniProt O08914); experiment: as above; format: binding; conditions: inhibition of RPFP labeling
T3 construct: from tissue
T3 sequence (O08914 1-579): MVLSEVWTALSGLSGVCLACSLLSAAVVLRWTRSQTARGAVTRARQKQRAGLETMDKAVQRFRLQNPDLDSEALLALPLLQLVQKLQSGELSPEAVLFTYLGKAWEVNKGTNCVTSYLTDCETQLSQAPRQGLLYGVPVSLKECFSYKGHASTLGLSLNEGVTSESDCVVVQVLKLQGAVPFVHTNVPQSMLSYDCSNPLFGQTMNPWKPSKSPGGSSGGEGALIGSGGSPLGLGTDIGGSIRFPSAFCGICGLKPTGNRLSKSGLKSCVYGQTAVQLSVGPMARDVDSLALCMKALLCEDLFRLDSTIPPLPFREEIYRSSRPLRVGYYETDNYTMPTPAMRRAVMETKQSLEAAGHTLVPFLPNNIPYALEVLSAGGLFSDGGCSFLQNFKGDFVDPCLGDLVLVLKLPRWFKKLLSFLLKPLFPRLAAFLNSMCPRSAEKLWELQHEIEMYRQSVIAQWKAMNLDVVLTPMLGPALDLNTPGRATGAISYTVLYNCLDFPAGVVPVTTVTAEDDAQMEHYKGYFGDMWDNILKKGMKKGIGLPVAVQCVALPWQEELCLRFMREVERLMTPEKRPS
Text: as §1

KIAA1363 = biological target: T4, KIAA1363 (Mus musculus, UniProt Q8BLF1); experiment: as above; format: binding; conditions: inhibition of RPFP labeling, read-out: KIAA IC50
T4 construct: from tissue
T4 sequence (Q8BLF1 1-408): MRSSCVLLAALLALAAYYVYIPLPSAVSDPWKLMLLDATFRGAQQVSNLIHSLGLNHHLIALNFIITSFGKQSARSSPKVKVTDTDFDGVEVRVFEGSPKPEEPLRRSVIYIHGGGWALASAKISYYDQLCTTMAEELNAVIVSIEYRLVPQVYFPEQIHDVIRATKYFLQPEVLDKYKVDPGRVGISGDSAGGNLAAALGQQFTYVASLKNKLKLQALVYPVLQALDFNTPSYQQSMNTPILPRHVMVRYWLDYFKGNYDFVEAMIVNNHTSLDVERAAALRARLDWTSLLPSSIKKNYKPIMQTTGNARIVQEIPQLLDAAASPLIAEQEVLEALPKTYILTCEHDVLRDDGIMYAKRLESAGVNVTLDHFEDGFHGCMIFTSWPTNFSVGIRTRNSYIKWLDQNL
Text: as §1

rats [4] = conditions: Kathuria 2003; cited from earlier work
rats [5] = conditions: rat; Kathuria 2003; cited from earlier work
rats [6] = conditions: cited from earlier work
FAAH [7] = biological target: T5, FAAH (Homo sapiens, UniProt O00519); conditions: cited from earlier work
T5 sequence (O00519 1-579): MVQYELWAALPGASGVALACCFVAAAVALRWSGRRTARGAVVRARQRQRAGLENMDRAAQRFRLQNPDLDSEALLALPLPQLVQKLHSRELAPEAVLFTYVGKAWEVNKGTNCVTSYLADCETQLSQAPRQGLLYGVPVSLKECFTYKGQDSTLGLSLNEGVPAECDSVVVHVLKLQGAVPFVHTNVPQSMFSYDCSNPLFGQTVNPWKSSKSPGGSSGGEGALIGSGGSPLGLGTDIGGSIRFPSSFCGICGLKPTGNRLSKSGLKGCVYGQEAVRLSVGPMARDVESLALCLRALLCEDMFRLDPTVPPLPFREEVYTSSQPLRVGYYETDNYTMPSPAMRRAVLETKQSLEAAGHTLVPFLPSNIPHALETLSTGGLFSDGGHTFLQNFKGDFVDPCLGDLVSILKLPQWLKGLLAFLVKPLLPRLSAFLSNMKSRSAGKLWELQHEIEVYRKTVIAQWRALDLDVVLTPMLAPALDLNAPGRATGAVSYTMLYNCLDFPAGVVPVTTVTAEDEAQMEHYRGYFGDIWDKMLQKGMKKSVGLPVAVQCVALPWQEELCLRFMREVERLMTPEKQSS

rats [8] = conditions: WO 04/033652; cited from earlier work
CREAE mice = conditions: Baker 2001; cited from earlier work
rats [9] = conditions: WO 02/087569; cited from earlier work
rats [10] = conditions: WO 02/087569; cited from earlier work; remark: listed apart in the source
[11] = Table 1, Dixon method, 14C-oleamide substrate, pH 9.0, 20-23° C., read-out: Ki
[12] = Table 2 (repeats the enzyme assay Ki), read-out: FAAH Ki

SMILES	pKi (FAAH [1]; [11])	pIC50 [2]	pIC50 (FAAH [3])	pIC50 (KIAA1363)	also measured
CCCCCCCC/C=C\CCCCCCCC(=O)c1nnc(-c2ccccc2)o1 [Example 7, 1-(5-Phenyl-1,3,4-oxadiazol-2-yl)-octadec-9-en-1-one]	7.80	–	–	–	–
O=C(CCCCCCCCc1ccccc1)c1nnc(-c2ccccn2)o1 [Example 4, 9-Phenyl-1-[5-(pyridin-2-yl)-1,3,4-oxadiazol-2-yl]-nonan-1-one]	9.08	6.30	9.10	5.52	pKi (FAAH [1]; [12]): 9.08
CCCCCCCC/C=C\CCCCCCCC(=O)c1nnc(-c2ccccn2)o1 [Example 5, 1-[5-(Pyridin-2-yl)-1,3,4-oxadiazol-2-yl]-octadec-9-en-1-one]	8.52	–	–	–	–
O=C(CCCCCc1ccccc1)c1nnc(-c2ccccn2)o1 [Example 2, 6-Phenyl-1-[5-(pyridin-2-yl)-1,3,4-oxadiazol-2-yl]-hexan-1-one]	9.07	7.52	8.40	4.05	–
NC(=O)c1cccc(-c2cccc(OC(=O)NC3CCCCC3)c2)c1 [URB-597]	–	–	–	–	efficacy in zero plus maze model of anxiety (rats [4]): efficacy; analgesic efficacy in formalin test (rats [5]): analgesic efficacy; analgesic efficacy/activity in hot plate test (rats [6]): analgesic efficacy
O=C(CCCCCCCc1ccccc1)c1nnc(-c2ccccn2)o1 [Example 3, 8-Phenyl-1-[5-(pyridin-2-yl)-1,3,4-oxadiazol-2-yl]-octan-1-one]	9.11	6.70	9.22	4.22	–
O=C(CCCCCCc1ccccc1)c1nnc(-c2ccccn2)o1 [Example 1, 7-Phenyl-1-[5-(pyridin-2-yl)-1,3,4-oxadiazol-2-yl]-heptan-1-one]	–	6.85	9.00	4.30	–
O=C(CCCCCCc1ccccc1)c1ncc(-c2ccccn2)o1 [OL-135]	–	–	–	–	FAAH inhibition (FAAH [7]): potent inhibitor; analgesic activity in tail emersion test (rats [8]): analgesic activity; analgesic efficacy/activity in hot plate test (rats [6]): analgesic activity
O=C(CCCCCCc1ccccc1)c1nnc(-c2ccco2)o1 [Example 11]	–	7.10	9.00	< 4.00	–
O=C(CCCCCCc1ccccc1)c1nnc(-c2cccnc2)o1 [Example 9, 7-Phenyl-1-[5-(pyridin-3-yl)-1,3,4-oxadiazol-2-yl]-heptan-1-one]	9.00	7.00	7.70	< 4.00	–
CCCCCCCCCCCCCCCCS(=O)(=O)F [AM374]	–	–	–	–	spasticity (CREAE mice): significantly reduce spasticity
O=C(CCCCCCc1ccccc1)c1nnc(-c2ccccc2)o1 [Example 6, 7-Phenyl-1-(5-phenyl-1,3,4-oxadiazol-2-yl)-heptan-1-one]	8.70	6.60	7.60	< 4.00	pKi (FAAH [1]; [12]): 8.70
O=C(CCCCCCc1ccccc1)c1nnc(-c2ccncc2)o1 [Example 10, 7-Phenyl-1-[5-(pyridin-4-yl)-1,3,4-oxadiazol-2-yl]-heptan-1-one]	9.00	7.52	7.70	< 4.00	–
Cc1nc(-c2ccccc2)c(-c2ccccc2)n1CCCCCCNC(=O)Oc1ccccc1F [BMS-1]	–	–	–	–	analgesic effect, Chung spinal nerve ligation model (rats [9]): analgesic effect; analgesic effect, Hargraves test (rats [10]): analgesic effect
